# Test results: patent US20040072738A1, “Analogues of thiocoraline and be-22179” (priority 2000, published 2004)
# Bridge positions count the residues as written; N and C are the ends. Square brackets hold non-standard residues; d marks the D form. Peptide text beside a SMILES is read from it. I, II: the chains in the order shown. * marks the point of attachment. Quinaldoyl(3-OH) = O=C(c1nc2ccccc2cc1O)*; NMeC = CN[C@@H](CS)C(=O)O
# How the values were obtained:
# [1] = system: duplex deoxyoligonucleotides, 5′-GCXXGC-3′ where XX=TA, AT, GC, CG; assay: fluorescence quenching titration with duplex deoxyoligonucleotides; conditions: high-affinity binding, listed as 1
# Source text: Consequently, the binding of 1 was examined with a set of four duplex deoxyoligonucleotides, 5′-GCXXGC-3′ where XX=TA, AT, GC, CG, incorporating the high affinity intercalation sites of the related bisintercalatiors echinomycin (5′-PuCGPy) (Corbaz, R., et al., Helv. Chim. Acta 1957, 40, 199; Keller-Schierlein, W., et al., Helv. Chim. Acta 1957, 40, 205; Keller-Schierlein, W., et al., Helv. Chim. Acta 1959, 42, 305; Martin, D. G., et al., J. Antibiot. 1975, 28, 332; Dell, A., et al., J. Am. Chem. Soc. 1975, 97, 2497), sandramycin (5′-CATG) (Boger, D. L., et al., Bioorg. Med. Chem. 1999, 7, 315; Boger, D. L., et al., Bioorg. Med. Chem. 1998, 6, 85), and the luzopeptins (5′-CATG) (Isolation: Konishi, M., et al., J. Antibiot. 1981, 34, 148; Structure and stereochemistry: Arnold, E., et al., J. Am. Chem. Soc. 1981, 103, 1243. Total synthesis (luzopeptins A-C): Boger, D. L., et al., J. Am. Chem. Soc. 1999, 121, 1098; Boger, D. L., et al., J. Am. Chem. Soc. […] The excitation and emission spectra for thiocoraline and BE-22179 were recorded in aqueous buffer (Tris-HCl, pH 7.4, 75 mM NaCl). To minimize fluorescence decrease due to dissolution or photobleaching, the solutions were stirred in 4-mL cuvettes in the dark with the minimum exposure to the excitation beam necessary to obtain a reading. […]
# [2] = biological target: HIV-1 reverse transcriptase (Human immunodeficiency virus type 1 group M subtype B, UniProt P03366); assay: inhibition of HIV-1 reverse transcriptase; assay type: biochemical
# w794 DNA = assay: DNase I and MTE footprinting; assay type: binding
# Experimental: FIG. 9 is an electrophoresis gel of DNase footprinting of echinomycin bound to w794 DNA. Lane 13, G, C and A Sanger sequencing reactions; lane 4, native DNA; lane 5, control DNA without treatment of DNase I; lanes 6-14; 0, 10, 20, 40, 60, 80, 100, 120, and […] echinomycin with DNase I treatment (1 min).
# FIG. 10 is an electrophoresis gel of DNase footprinting of thiocoraline bound to w794 DNA. Lane 1, native DNA; lane 2, control DNA without treatment of DNase I; lanes 3-6, G, C, A, and T Sanger sequencing reactions; lanes 7-26; 0, 10, 25, 50, 75, 100, 150, 200, 250, 300, 350, 400, 450, 500, 600, 700, 800, 900, 1000, and […] thiocoraline with DNase I treatment (1 min).
# [3] = solubility in aqueous buffer; assay type: physicochemical; conditions: aqueous Tris-HCl buffer; Tris-HCl pH 7.4, 75 mM NaCl; read-out: agent concentrations where the compounds are soluble
# DNA topoisomerase I = biological target: T1, DNA topoisomerase I (Homo sapiens, UniProt P11387); conditions: cited from earlier work
# T1 sequence (P11387 1-765): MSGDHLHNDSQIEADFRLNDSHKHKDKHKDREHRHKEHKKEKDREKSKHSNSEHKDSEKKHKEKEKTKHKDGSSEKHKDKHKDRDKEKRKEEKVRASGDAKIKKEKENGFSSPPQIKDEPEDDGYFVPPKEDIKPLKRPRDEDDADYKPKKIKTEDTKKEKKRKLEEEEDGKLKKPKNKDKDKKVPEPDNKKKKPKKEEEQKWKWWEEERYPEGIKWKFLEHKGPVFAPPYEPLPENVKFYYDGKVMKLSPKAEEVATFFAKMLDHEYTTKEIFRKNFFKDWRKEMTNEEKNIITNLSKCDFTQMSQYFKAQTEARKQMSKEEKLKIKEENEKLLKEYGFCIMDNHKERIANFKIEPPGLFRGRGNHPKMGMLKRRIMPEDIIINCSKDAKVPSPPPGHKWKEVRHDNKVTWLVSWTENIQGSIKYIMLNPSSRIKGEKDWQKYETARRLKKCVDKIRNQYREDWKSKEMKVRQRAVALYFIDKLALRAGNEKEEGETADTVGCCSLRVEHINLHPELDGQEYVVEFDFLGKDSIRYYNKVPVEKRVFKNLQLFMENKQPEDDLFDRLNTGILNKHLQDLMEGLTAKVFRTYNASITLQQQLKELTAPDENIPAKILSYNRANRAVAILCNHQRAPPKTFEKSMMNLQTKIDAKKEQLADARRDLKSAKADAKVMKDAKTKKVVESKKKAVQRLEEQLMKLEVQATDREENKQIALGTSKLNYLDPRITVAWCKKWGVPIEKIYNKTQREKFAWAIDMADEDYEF
# DNA topoisomerase II = conditions: cited from earlier work
# L1210 cell line = assay: cytotoxic activity in the L1210 assays; conditions: read-out: IC50 cytotoxic activity; L1210 cell line
smiles,measurement,setting,value
"CSC[C@H]1C(=O)SC[C@@H](NC(=O)c2nc3ccccc3cc2O)C(=O)NCC(=O)N(C)[C@H]2CSSC[C@@H](C(=O)N1C)N(C)C(=O)CNC(=O)[C@H](NC(=O)c1nc3ccccc3cc1O)CSC(=O)[C@H](CSC)N(C)C2=O [Thiocoraline] (I: {Quinaldoyl(3-OH)}-[dC]G[NMeC][NMeC](Me) / II: {Quinaldoyl(3-OH)}-[dC]G[NMeC][NMeC](Me); thioester I:1-II:C, I:C-II:1; disulfide I:3-II:3)",binding constants for the four deoxyoligonucleotides,[1],3-7×10^6 M^−1
same,inhibition of HIV-1 reverse transcriptase (in words),[2],weak inhibitor
same,selectivity of DNA binding by footprinting,w794 DNA,failed to reveal a distinguishable selectivity
same,solubility,[3],1 to 10 µM
same,inhibition of DNA topoisomerase I,DNA topoisomerase I,does not inhibit
same,inhibition of DNA topoisomerase II,DNA topoisomerase II,does not inhibit
same,IC50,L1210 cell line,0.2 nM
